Values after ≈ are worked out from the molar mass of the structure shown.
Columns and labels:
S. aureus RN4220 = assay: MIC, agar plate dilution method, S. aureus RN4220; type: cell-based, Staphylococcus aureus; details: for minimal inhibitory concentration (MIC): S. aureus RN4220, Sensitive bacterium; for MIC: Staphylococcus aureus, RN4220, S. aureus RN4220, Sensitive bacterium, read-out: minimal inhibitory concentration (MIC)
How it was run: (§1)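 Minimal inhibitory concentration (μg/mL) was determined by agar plate dilution following the Japan Society of Chemotherapy method.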

[1] = tested on: A. baumannii ATCC BAA-1710; assay: MIC, agar plate dilution method, A. baumannii ATCC BAA-1710; type: cell-based, Acinetobacter baumannii; details: for minimal inhibitory concentration (MIC): A. baumannii ATCC BAA-1710, MDRA; for MIC: Acinetobacter baumannii, ATCCBAA1710, A. baumannii ATCC BAA-1710, MDRA, read-out: minimal inhibitory concentration (MIC)
How it was run: as §1

E. faecium ATCC19434 = assay: MIC, agar plate dilution method, E. faecium ATCC19434; type: cell-based, Enterococcus faecium; details: for minimal inhibitory concentration (MIC): E. faecium ATCC19434; for MIC: Enterococcus faecium, ATCC19434, E. faecium ATCC19434, read-out: minimal inhibitory concentration (MIC)
How it was run: as §1

P. aeruginosa MSC17707 = assay: MIC, agar plate dilution method, P. aeruginosa MSC17707; type: cell-based, Pseudomonas aeruginosa; details: for minimal inhibitory concentration (MIC): P. aeruginosa MSC17707, AMK-resistant; for MIC: Pseudomonas aeruginosa, MSC17707, P. aeruginosa MSC17707, AMK-resistant, read-out: minimal inhibitory concentration (MIC)
How it was run: as §1

S. marcescens GN6944 = assay: MIC, agar plate dilution method, S. marcescens GN6944; type: cell-based, Serratia marcescens; details: S. marcescens GN6944, GM-resistant; for MIC: Serratia marcescens, read-out: minimal inhibitory concentration (MIC)
How it was run: as §1

P. aeruginosa MSC01035 = assay: MIC, agar plate dilution method, P. aeruginosa MSC01035; type: cell-based, Pseudomonas aeruginosa; details: P. aeruginosa MSC01035, ABK-resistant; for MIC: Pseudomonas aeruginosa, read-out: minimal inhibitory concentration (MIC)
How it was run: as §1

[2] = tested on: K. pneumoniae ATCC BAA-2146; assay: MIC, agar plate dilution method, K. pneumoniae ATCC BAA-2146; type: cell-based, Klebsiella pneumoniae; details: for minimal inhibitory concentration (MIC): K. pneumoniae ATCC BAA-2146, NDM-producing strain; for MIC: Klebsiella pneumoniae, ATCCBAA2146, K. pneumoniae ATCC BAA-2146, NDM-producing strain, read-out: minimal inhibitory concentration (MIC)
How it was run: as §1

[3] = tested on: K. pneumoniae ATCC BAA-1705; assay: MIC, agar plate dilution method, K. pneumoniae ATCC BAA-1705; type: cell-based, Klebsiella pneumoniae; details: for minimal inhibitory concentration (MIC): K. pneumoniae ATCC BAA-1705, KPC-producing strain; for MIC: Klebsiella pneumoniae, ATCCBAA1705, K. pneumoniae ATCC BAA-1705, KPC-producing strain, read-out: minimal inhibitory concentration (MIC)
How it was run: as §1

S. aureus MF490 = assay: MIC, agar plate dilution method, S. aureus MF490; type: cell-based, Staphylococcus aureus; details: for minimal inhibitory concentration (MIC): S. aureus MF490, MRSA; for MIC: Staphylococcus aureus, MRSA, read-out: minimal inhibitory concentration (MIC)
How it was run: as §1

E. coli JM109/pMW218 = assay: MIC, agar plate dilution method, E. coli JM109/pMW218; type: cell-based, Escherichia coli; details: for minimal inhibitory concentration (MIC): E. coli JM109/pMW218, Sensitive bacterium; for MIC: Escherichia coli, JM109/PMW218, E. coli JM109/pMW218, Sensitive bacterium, read-out: minimal inhibitory concentration (MIC)
How it was run: as §1

P. aeruginosa PAO1/GN315 = assay: MIC, agar plate dilution method, P. aeruginosa PAO1/GN315; type: cell-based, Pseudomonas aeruginosa; details: for minimal inhibitory concentration (MIC): P. aeruginosa PAO1/GN315, AMK-resistant; for MIC: Pseudomonas aeruginosa, read-out: minimal inhibitory concentration (MIC), P. aeruginosa PAO1/GN315, AMK-resistant
How it was run: as §1

S. marcescens TH-0447 = assay: MIC, agar plate dilution method, S. marcescens TH-0447; type: cell-based, Serratia marcescens; details: for minimal inhibitory concentration (MIC): S. marcescens TH-0447, AMK-resistant; for MIC: Serratia marcescens, TH0447, S. marcescens TH-0447, AMK-resistant, read-out: minimal inhibitory concentration (MIC)
How it was run: as §1

P. aeruginosa PAO1 = assay: MIC, agar plate dilution method, P. aeruginosa PAO1; type: cell-based, Pseudomonas aeruginosa; details: for minimal inhibitory concentration (MIC): P. aeruginosa PAO1, Sensitive bacterium; for MIC: Pseudomonas aeruginosa, PAO1, P. aeruginosa PAO1, Sensitive bacterium, read-out: minimal inhibitory concentration (MIC)
How it was run: as §1

S. aureus RN4220/pMS520 = assay: MIC, agar plate dilution method, S. aureus RN4220/pMS520; type: cell-based, Staphylococcus aureus; details: for minimal inhibitory concentration (MIC): S. aureus RN4220/pMS520, MRSA; for MIC: Staphylococcus aureus, MRSA, read-out: minimal inhibitory concentration (MIC), S. aureus RN4220/pMS520, MRSA
How it was run: as §1

| SMILES | minimal inhibitory concentration (MIC) (S. aureus RN4220) [µg/mL] | minimal inhibitory concentration (MIC) [1] [µg/mL] | minimal inhibitory concentration (MIC) (E. faecium ATCC19434) [µg/mL] | minimal inhibitory concentration (MIC) (P. aeruginosa MSC17707) [µg/mL] | minimal inhibitory concentration (MIC) (S. marcescens GN6944) [µg/mL] | minimal inhibitory concentration (MIC) (P. aeruginosa MSC01035) [µg/mL] | MIC (S. aureus RN4220) [µg/mL] | MIC [1] [µg/mL] | MIC (E. faecium ATCC19434) [µg/mL] | MIC (P. aeruginosa MSC17707) [µg/mL] | MIC (S. marcescens GN6944) [µg/mL] | MIC (P. aeruginosa MSC01035) [µg/mL] | MIC [2] [µg/mL] | MIC [3] [µg/mL] | MIC (S. aureus MF490) [µg/mL] | MIC (E. coli JM109/pMW218) [µg/mL] | MIC (P. aeruginosa PAO1/GN315) [µg/mL] | MIC (S. marcescens TH-0447) [µg/mL] | MIC (P. aeruginosa PAO1) [µg/mL] | MIC (S. aureus RN4220/pMS520) [µg/mL] | also measured |
| --- | --- | --- | --- | --- | --- | --- | --- | --- | --- | --- | --- | --- | --- | --- | --- | --- | --- | --- | --- | --- | --- |
| CN[C@@H]1[C@@H](O[C@H]2O[C@H](CO)[C@@H](NC(=N)N)[C@H](O)[C@H]2O)O[C@H]2C[C@@H](N)[C@@H](O[C@H]3[C@@H](O)[C@@H](O)[C@H](N)C[C@@H]3N)O[C@@H]2[C@@H]1O [Compound S1-j, 4″-deamino-5-epi-4″-guanidinoapramycin] | 2 (≈ 3.44 µM) | 4 (≈ 6.88 µM) | 8 (≈ 13.8 µM) | 4 (≈ 6.88 µM) | 4 (≈ 6.88 µM) | 4 (≈ 6.88 µM) | – | – | – | – | – | – | – | – | – | – | – | – | – | – | minimal inhibitory concentration (MIC) [2]: 1 µg/mL (≈ 1.72 µM); minimal inhibitory concentration (MIC) [3]: 1 µg/mL (≈ 1.72 µM); minimal inhibitory concentration (MIC) (S. aureus MF490): 4 µg/mL (≈ 6.88 µM); minimal inhibitory concentration (MIC) (E. coli JM109/pMW218): 0.5 µg/mL (≈ 0.86 µM); minimal inhibitory concentration (MIC) (P. aeruginosa PAO1/GN315): 4 µg/mL (≈ 6.88 µM); minimal inhibitory concentration (MIC) (S. marcescens TH-0447): 4 µg/mL (≈ 6.88 µM); minimal inhibitory concentration (MIC) (P. aeruginosa PAO1): 2 µg/mL (≈ 3.44 µM); minimal inhibitory concentration (MIC) (S. aureus RN4220/pMS520): 1 µg/mL (≈ 1.72 µM) |
| CNC1C(O[C@H]2OC(CO)[C@@H](NC(=N)N)[C@H](O)C2O)O[C@H]2CC(N)[C@@H](O[C@@H]3C(N)C[C@@H](N)C(O)[C@H]3F)OC2C1O (stereo partly drawn) [Compound S1-k, 4″-deamino-5-deoxy-5-epi-5-fluoro-4″-guanidinoapramycin] | – | – | – | – | – | – | 1 (≈ 1.71 µM) | 8 (≈ 13.7 µM) | 16 (≈ 27.4 µM) | 8 (≈ 13.7 µM) | 4 (≈ 6.85 µM) | 8 (≈ 13.7 µM) | 1 (≈ 1.71 µM) | 1 (≈ 1.71 µM) | 4 (≈ 6.85 µM) | 0.5 (≈ 0.857 µM) | 8 (≈ 13.7 µM) | 8 (≈ 13.7 µM) | 8 (≈ 13.7 µM) | 1 (≈ 1.71 µM) | – |
| CNC1C(CO)OC(OC2OC3CC(N)C(OC4C(N)CC(N)CC4O)OC3C(O)C2NC)C(O)C1O (stereo not drawn) [Compound S1-l, 6-deoxy-5-epi-4″-N-methylapramycin] | 2 (≈ 3.72 µM) | 4 (≈ 7.44 µM) | 16 (≈ 29.8 µM) | 4 (≈ 7.44 µM) | 2 (≈ 3.72 µM) | 4 (≈ 7.44 µM) | – | – | – | – | – | – | – | – | – | – | – | – | – | – | minimal inhibitory concentration (MIC) [2]: 0.5 µg/mL (≈ 0.93 µM); minimal inhibitory concentration (MIC) [3]: 1 µg/mL (≈ 1.86 µM); minimal inhibitory concentration (MIC) (S. aureus MF490): 8 µg/mL (≈ 14.9 µM); minimal inhibitory concentration (MIC) (E. coli JM109/pMW218): 0.5 µg/mL (≈ 0.93 µM); minimal inhibitory concentration (MIC) (P. aeruginosa PAO1/GN315): 4 µg/mL (≈ 7.44 µM); minimal inhibitory concentration (MIC) (S. marcescens TH-0447): 4 µg/mL (≈ 7.44 µM); minimal inhibitory concentration (MIC) (P. aeruginosa PAO1): 4 µg/mL (≈ 7.44 µM); minimal inhibitory concentration (MIC) (S. aureus RN4220/pMS520): 1 µg/mL (≈ 1.86 µM) |
| CNC1C(O[C@H]2OC(CO)[C@@H](NCCN)[C@H](O)C2O)O[C@H]2CC(N)[C@@H](O[C@@H]3C(N)C[C@@H](N)C[C@H]3O)OC2C1O (stereo partly shown) [Compound S1-m, 6-deoxy-4″-N-(2-aminoethyl)-5-epiapramycin] | – | – | – | – | – | – | 2 (≈ 3.53 µM) | 4 (≈ 7.06 µM) | 16 (≈ 28.2 µM) | 8 (≈ 14.1 µM) | 8 (≈ 14.1 µM) | 8 (≈ 14.1 µM) | 1 (≈ 1.76 µM) | 2 (≈ 3.53 µM) | 8 (≈ 14.1 µM) | 1 (≈ 1.76 µM) | 8 (≈ 14.1 µM) | 4 (≈ 7.06 µM) | 4 (≈ 7.06 µM) | 2 (≈ 3.53 µM) | – |
| CNC1C(O[C@H]2OC(CO)[C@@H](NCCCN)[C@H](O)C2O)O[C@H]2CC(N)[C@@H](O[C@@H]3C(N)C[C@@H](N)C[C@H]3O)OC2C1O (stereo partly shown) [Compound S1-n, 6-deoxy-4″-N-(3-aminopropyl)-5-epiapramycin] | – | – | – | – | – | – | 2 (≈ 3.44 µM) | 4 (≈ 6.89 µM) | 8 (≈ 13.8 µM) | 8 (≈ 13.8 µM) | 4 (≈ 6.89 µM) | 4 (≈ 6.89 µM) | 1 (≈ 1.72 µM) | 1 (≈ 1.72 µM) | 8 (≈ 13.8 µM) | 1 (≈ 1.72 µM) | 4 (≈ 6.89 µM) | 4 (≈ 6.89 µM) | 4 (≈ 6.89 µM) | 2 (≈ 3.44 µM) | – |
